Literature values, collected in publication PMC3322358 (Chemistry & biology, 2008).

Tested on: CFTR
Conditions: ref Muanprasat et al., 2004

SMILES: O=C(CNc1ccc2ccccc2c1)N/N=C/c1cc(Br)c(O)c(Br)c1O [GlyH-101]
- time constant of CFTR channel block: 8 to 10 ms
